In brackets after ≈: the same amount, converted by molar mass.

Test system in one assay: not listed separately
Put plainly: Inhibition of TNFalpha-induced NFkappaB (unknown origin) activation expressed in mouse NIH-3T3 cells […] followed by TNFalpha addition measured after 6 hrs by luciferase reporter gene assay. In kind it is cell-based. The following applies: NIH3T3.
Turning to `C=C(CO)C(=O)O[C@H]1C/C(C)=C/CC/C(CO)=C/[C@H]2OC(=O)C(=C)[C@H]12`, the half-inhibitory concentration (IC50) came out at 8.6 µM. In the case of `C=C1C(=O)O[C@@H]2/C=C(\CO)CC/C=C(\C)C[C@H](OC(=O)/C(=C/C)CO)[C@@H]12`, the IC50 stood at 42.1 µM. In turn, `C=C[C@]1(C)C[C@H](OC(=O)C(=C)CO)[C@@H](C(=C)C(=O)OC)[C@H](O)[C@H]1C(=C)CO` had an IC50 of 45 µM. On to `C=C[C@]1(C)C[C@H](OC(=O)C(=C)CO)[C@H]2C(=C)C(=O)O[C@@H]2[C@H]1C(=C)CO`, for which half-maximal inhibition (IC50) was put at 22.5 µM. Compound `C=C[C@]1(C)C[C@H](OC(=O)C(=C)CO)[C@H]2C(=C)C(=O)O[C@@H]2[C@H]1C(=C)C=O` gave an IC50 of 3.6 µM. Still for that read-out and setting: the same measure for `C=C(CO)C(=O)O[C@H]1C[C@@H]2[C@@H]([C@@H](O)[C@@H]1C(=C)C(=O)OC)[C@H](C=O)CC[C@H]2O`: more than 50 µM.

For another assay, the target named is T1, Prostaglandin G/H synthase 2 (Homo sapiens, UniProt P35354).
T1 sequence (P35354 whole entry): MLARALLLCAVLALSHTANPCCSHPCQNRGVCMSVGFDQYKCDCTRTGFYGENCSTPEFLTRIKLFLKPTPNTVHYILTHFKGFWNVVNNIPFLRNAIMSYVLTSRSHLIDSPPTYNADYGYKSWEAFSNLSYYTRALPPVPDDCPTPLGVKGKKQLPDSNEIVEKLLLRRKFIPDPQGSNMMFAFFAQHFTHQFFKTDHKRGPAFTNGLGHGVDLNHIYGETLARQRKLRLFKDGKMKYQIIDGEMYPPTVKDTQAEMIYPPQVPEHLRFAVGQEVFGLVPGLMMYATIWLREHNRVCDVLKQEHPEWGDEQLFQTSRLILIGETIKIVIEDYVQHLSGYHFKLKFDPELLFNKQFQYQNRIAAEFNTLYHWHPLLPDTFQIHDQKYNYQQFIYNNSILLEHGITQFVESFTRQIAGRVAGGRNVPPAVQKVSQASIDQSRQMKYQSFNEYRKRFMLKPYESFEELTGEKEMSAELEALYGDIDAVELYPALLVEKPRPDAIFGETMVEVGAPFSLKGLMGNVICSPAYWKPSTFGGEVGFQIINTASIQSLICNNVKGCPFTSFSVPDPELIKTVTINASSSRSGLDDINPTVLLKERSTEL
Put plainly: Inhibition of COX2 (unknown origin).
Settings: not given
Turning to `COOC[C@@]1(C)CC[C@]2(C)CC[C@]3(C)[C@@H]4CC(=O)c5cc(OC)c(O)cc5[C@]4(C)CC[C@@]3(C)C2C1` (stereo partly specified), half-maximal inhibition (IC50) required 660 µM.

For the compound `C=C(C)[C@@H]1CC[C@]2(C)CC[C@]3(C)[C@H](CCC4[C@@]5(C)[C@H](O)C[C@H](OC(C)=O)C(C)(C)[C@@H]5CC[C@]43C)[C@@H]12` (stereo partly specified), the IC50 was 540 µM. The same measure, in the same setting: the same measure for `CC(C)[C@@H]1CC[C@]2(C)[C@@H]3C(C=C4[C@@H]5CC(C)(C)C(=O)C[C@]5(C)CC[C@]42C)OC(=O)CC(O)[C@]31C` (stereo partly specified): 460 µM; for `COOC[C@@]1(C)CC[C@]2(C)CC[C@]3(C)[C@@H]4CCc5cc(O)c(O)cc5[C@]4(C)CC[C@@]3(C)C2C1` (stereo partly specified): 430 µM; for `C=C(C)[C@@H]1CC[C@]2(C)CC[C@]3(C)[C@H](CCC4[C@@]5(C)[C@H](O)C[C@H](O)C(C)(C)[C@@H]5CC[C@]43C)[C@@H]12` (stereo partly specified): 450 µM.

`CC(C)[C@@H]1CC[C@]2(C)[C@@H]3C(C=C4[C@@H]5CC(C)(C)CC[C@]5(C)CC[C@]42C)OC(=O)CC[C@]31C` (stereo partly specified) returned an IC50 of 650 µM. Same read-out and setting: with `O=C(O[C@@H]1[C@@H](c2c(O)cc(O)c3c2O[C@H](c2cc(O)c(O)c(O)c2)[C@H](OC(=O)c2cc(O)c(O)c(O)c2)C3)c2c(O)cc(O)c([C@H]3c4c(O)cc(O)cc4O[C@H](c4cc(O)c(O)c(O)c4)[C@@H]3OC(=O)c3cc(O)c(O)c(O)c3)c2O[C@@H]1c1cc(O)c(O)c(O)c1)c1cc(O)c(O)c(O)c1` the figure was 4.5 µM.

The subject of a further assay is RAW264.7. As to the kind of experiment: Antiinflammatory activity against mouse RAW264.7 cells assessed as inhibition of LPS induced iNOS at 30 uM preincubated for 1 hr followed by LPS stimulation measured after 18 hrs relative to control. It counts as functional.
Settings: not given
Take `CC1=C(C)[C@H]2C3=CC[C@@H]4[C@@]5(C)CC[C@H](O[C@@H]6OC[C@@H](O)[C@H](O)[C@H]6O[C@@H]6O[C@H](CO)[C@@H](O)[C@H](O)[C@H]6O)C(C)(C)[C@@H]5CC[C@@]4(C)[C@]3(C)CC[C@@]2(C(=O)O[C@@H]2O[C@H](CO)[C@@H](O)[C@H](O)[C@H]2O)CC1`: the inhibition at 30 µM stood at 72%. On to `CC1(C)CC[C@]2(C(=O)O[C@@H]3O[C@H](CO)[C@@H](O)[C@H](O)[C@H]3O)CC[C@]3(C)C(=CC[C@@H]4[C@@]5(C)CC[C@H](O[C@@H]6O[C@H](C(=O)O)[C@@H](O)[C@H](O)[C@H]6O)C(C)(C)[C@@H]5CC[C@]43C)[C@@H]2C1` [CHIKUSETSUSAPONIN IVA], for which the inhibition at 30 µM was found to be 92.8%. Same read-out and setting: the same measure for `CC1=C2C3=CC[C@@H]4[C@@]5(C)CC[C@H](O[C@@H]6OC[C@@H](O)[C@H](O)[C@H]6O[C@@H]6O[C@H](CO)[C@@H](O)[C@H](O)[C@H]6O)C(C)(C)[C@@H]5CC[C@@]4(C)[C@]3(C)CC[C@@]2(C(=O)O[C@@H]2O[C@H](CO)[C@@H](O)[C@H](O)[C@H]2O)CC[C@H]1C`: 75%. With `CC1=C2C3=CC[C@@H]4[C@@]5(C)CC[C@H](O[C@@H]6OC[C@@H](O)[C@H](O)[C@H]6O)C(C)(C)[C@@H]5CC[C@@]4(C)[C@]3(C)CC[C@@]2(C(=O)O[C@@H]2O[C@H](CO)[C@@H](O)[C@H](O)[C@H]2O)CC[C@H]1C`, the inhibition at 30 µM is 64.9%.

In the next assay the test system is RAW264.7. Put plainly: Antiinflammatory activity in mouse RAW264.7 cells assessed as inhibition of LPS-induced nitric oxide production after 24 hrs by Griess reagent based assay. In kind it is functional, cell-based. The conditions noted are these: RAW264.7, 24 h.
On to `COc1cc(O)cc(-c2cc3cc(O)c(OC)cc3o2)c1`, for which the IC50 amounted to 7.9 µg/mL (≈ 27.6 µM).

Turning to `O=C(/C=C/c1ccc(O)cc1O)c1ccc(O)cc1O`, the IC50 stood at 10.2 µg/mL (≈ 37.5 µM).

In the case of `COc1cc(O)cc(-c2cc3ccc(O)cc3o2)c1C/C=C(\C)CCC=C(C)C`, the half-inhibitory concentration (IC50) is 5.3 µg/mL (≈ 13.5 µM).

Turning to `Oc1ccc(/C=C/c2cc(O)cc(O)c2)cc1` [RESVERATROL], the IC50 stood at 24.1 µg/mL (≈ 106 µM). Still for that read-out and setting: with `CC1=CCc2ccc3cc(-c4cc(O)cc(O)c4)oc3c2OC1` the figure was 19.8 µg/mL (≈ 64.2 µM).

The next assay deals with T2, Prostaglandin G/H synthase 2 (Homo sapiens) (UniProt P35354).
T2 sequence (whole entry): T1 sequence (P35354 whole entry)
As to the kind of experiment: Inhibition of human COX2 at 10 uM using arachidonic acid as substrate measured for 300 secs intervals from 3 to 10 secs in presence of hematin by fluorescence assay relative to control.
Settings: not given
As for `COc1cc(O)c2c(c1)OCC1(Cc3c1cc(OC)c(OC)c3O)C2=O` (stereo unspecified), the inhibition amounted to 101%. On to `COc1ccc(CC2COc3cc(O)cc(O)c3C2=O)cc1` (stereo unspecified), for which the inhibition is 20.9%.

`COc1cc(OC)c(C(=O)CCc2ccc(O)cc2)c(OC)c1`: the inhibition was determined as 54.4%.

Turning to `O=C1c2c(O)cc(O)cc2OCC1Cc1ccc(O)cc1` (stereo unspecified), the inhibition worked out at 13.3%.

On to `COc1cc(OC)c(C(=O)/C=C/c2ccc(O)cc2)c(OC)c1`, for which the inhibition was 62.2%.

For `COc1ccc(CC2(O)COc3cc(O)cc(O)c3C2=O)cc1` (stereo unspecified), the inhibition was found to be 71.4%. Still for that read-out and setting: with `COc1cc(OC(C)=O)c2c(c1)O[C@H](OC(C)=O)[C@]1(Cc3cc4c(cc31)COC4)C2=O` the figure was 89%. As to `COc1cc(O)cc2c1C(=O)C(Cc1ccc(O)cc1)CO2` (stereo unspecified), the inhibition was 73.8%. `COc1cc(OC(C)=O)c2c(c1)O[C@H](OC(C)=O)[C@@]1(Cc3cc4c(cc31)COC4)C2=O`: the inhibition is 20.9%.

The next assay deals with T3, Prostaglandin G/H synthase 2 (Ovis aries, UniProt P79208).
T3 sequence (P79208 whole entry): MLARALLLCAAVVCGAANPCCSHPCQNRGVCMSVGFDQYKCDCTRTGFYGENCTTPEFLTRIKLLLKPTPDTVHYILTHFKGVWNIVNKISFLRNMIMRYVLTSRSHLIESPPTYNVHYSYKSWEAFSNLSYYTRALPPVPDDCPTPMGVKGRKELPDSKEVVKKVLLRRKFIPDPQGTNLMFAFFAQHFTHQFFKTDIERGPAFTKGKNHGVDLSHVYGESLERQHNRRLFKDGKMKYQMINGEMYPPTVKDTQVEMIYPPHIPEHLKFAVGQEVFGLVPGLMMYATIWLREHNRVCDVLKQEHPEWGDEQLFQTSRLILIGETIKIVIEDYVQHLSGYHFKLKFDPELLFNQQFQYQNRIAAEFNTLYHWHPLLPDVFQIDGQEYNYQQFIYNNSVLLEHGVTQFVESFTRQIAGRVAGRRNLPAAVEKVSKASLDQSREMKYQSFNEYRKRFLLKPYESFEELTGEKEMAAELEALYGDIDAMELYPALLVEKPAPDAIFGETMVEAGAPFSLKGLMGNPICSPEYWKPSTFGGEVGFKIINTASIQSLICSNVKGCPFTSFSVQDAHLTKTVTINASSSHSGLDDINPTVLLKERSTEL
Put plainly: Inhibition of recombinant ovine COX2 using arachidonic acid as substrate preincubated for 15 mins followed by arachidonic acid addition measured after 2 mins by ELISA.
Settings: not given
As to `C[C@@H]1O[C@@H](O[C@@H]2[C@@H](O[C@@H]3OC[C@](O)(CO)[C@H]3O)[C@H](OCCc3ccc(O)c(O)c3)O[C@H](CO)[C@H]2OC(=O)/C=C/c2ccc(O)c(O)c2)[C@H](O)[C@H](O)[C@H]1O`, the IC50 was determined as 18.2 µM. Regarding `CC(=O)OC[C@H]1O[C@@H](OCCc2ccc(O)c(O)c2)[C@H](O[C@@H]2OC[C@](O)(CO)[C@H]2O)[C@@H](O[C@@H]2O[C@@H](C)[C@H](O)[C@@H](O)[C@H]2O)[C@@H]1OC(=O)/C=C/c1ccc(O)c(O)c1`, the IC50 was 16 µM. The same measure, in the same setting: with `CC(=O)OC[C@H]1O[C@@H](OCCc2ccc(O)c(O)c2)[C@H](O)[C@@H](O[C@@H]2O[C@@H](C)[C@H](O)[C@@H](O[C@@H]3OC[C@](O)(CO)[C@H]3O)[C@H]2O)[C@@H]1OC(=O)/C=C/c1ccc(O)c(O)c1` the figure was 19.6 µM; with `C[C@@H]1O[C@@H](O[C@@H]2[C@@H](O)[C@H](OCCc3ccc(O)c(O)c3)O[C@H](CO)[C@H]2OC(=O)/C=C/c2ccc(O)c(O)c2)[C@H](O)[C@H](O)[C@H]1O` [ACETOSIDE], 11.3 µM; with `C[C@@H]1O[C@@H](O[C@@H]2[C@@H](O)[C@H](OCCc3ccc(O)c(O)c3)O[C@H](CO)[C@H]2OC(=O)/C=C/c2ccc(O)c(O)c2)[C@H](O)[C@H](O[C@@H]2OC[C@](O)(CO)[C@H]2O)[C@H]1O`, 21.5 µM. Take `O=C(OC[C@@]1(O)CO[C@@H](O[C@H]2[C@H](Oc3ccc(O)c(O)c3)O[C@H](CO)[C@@H](O)[C@@H]2O)[C@@H]1O)c1ccc(O)c(O)c1`: the IC50 stood at 24.7 µM. On the same count and under the same terms, with `C[C@@H]1O[C@@H](O[C@@H]2[C@@H](O)[C@H](OCCc3ccc(O)cc3)O[C@H](CO)[C@H]2OC(=O)/C=C/c2ccc(O)c(O)c2)[C@H](O)[C@H](O[C@@H]2OC[C@](O)(CO)[C@H]2O)[C@H]1O` the figure was 36 µM; with `CC(=O)OC[C@H]1O[C@@H](OCCc2ccc(O)c(O)c2)[C@H](O)[C@@H](O[C@@H]2O[C@@H](C)[C@H](O)[C@@H](O)[C@H]2O)[C@@H]1OC(=O)/C=C/c1ccc(O)c(O)c1`, 9.4 µM. Same read-out and setting: the same measure for `COc1cc(O[C@@H]2O[C@H](CO)[C@@H](O)[C@H](O)[C@H]2O[C@@H]2OC[C@](O)(COC(=O)c3ccc(O)c(O)c3)[C@H]2O)ccc1O`: 29.2 µM.

A further assay concerns RAW264.7. As to the kind of experiment: Antiinflammatory activity in mouse RAW264.7 cells assessed as inhibition of LPS-induced nitric oxide production at […] after 24 hrs by Griess reagent based assay relative to control. It counts as functional. The arrangement: dose or concentration left out as unconfirmed. The conditions noted are these: RAW264.7, 24 h.
In the case of `O=c1c2ccc(O)c(O)c2oc2cc(O)cc(O)c12`, the inhibition amounted to 78.9%.
